Test results: patent publication US5843916A, “Cyclic amp analogues, individually and in pairs, to inhibit neoplastic cell growth” (priority 1994, dated 1998)
Like-named read-outs stand apart in the source and are kept apart here.

Columns and labels:
[1] = Toxicity in non-tumor BDF1 mice (Table 6); type: in vivo, mouse; conditions: mouse, in vivo; for mortality: qd, day 1, read-out: Toxic deaths, No. killed/No. treated
Description: (§1) Influence of 8-Cl-cAMP-Na^+ on the life span of
(§2) non-tumor BDF1 mice when delivered i.p. by bolus injection
(§3) When delivered qd, day 1 to nontumor BDF1 mice, the 480 and 288 mg/k

BDF1 mice = assay: Toxicity in non-tumor BDF1 mice (Table 6); type: in vivo, mouse; conditions: for Toxic deaths, No. killed/No. treated: qd, day 1
Description: as §1, §2, §3

[2] = test system: MDA-MB-231 mammary carcinoma; assay: Growth of human mammary tumor xenograft, ip infusion (Table 8); type: in vivo, human xenograft in athymic CD-1 mice; conditions: 7 days; for % Δ T/T or % Δ T/ΔC: positive = ΔT/ΔC
Description: (§4) Based on the findings with the […] leukemia model, the efficacy of the 8-Cl-cAMP-Na+infusions were evaluated in advanced-stage human tumor xenograft models. Tumor fragments of approximately 14 mg were implanted subcutaneously in athymic CD-1 female mice and seven day intraperitoneal infusions of the cyclic nucleotide were initiated three weeks later when mean tumor weights had reached 300-400 mg. Tumor measurements were recorded on the initial day of treatment (staging day) and one day after treatment was completed (staging day +7), and were used to calculate changes in tumor weights.
(§5) *Mean tumor weight per group on staging day.
(§6) $Mean tumor weight per group on staging day +7.
(§7) **Change in test tumor wt (finalinitial)/initial test tumor treatment.
(§8) Denoted by negative value.
(§9) $$Change in test tumor wt/change in control tumor wt. Used where test
(§10) tumor size increased during treatment. Denoted by positive value.

MX-1 mammary carcinoma = assay: as above; type: in vivo, human xenograft in athymic CD-1 mice; conditions: 7 days; for % Δ T/T or % Δ T/ΔC: negative = ΔT/T
Description: as §4, §5, §6, §7, §8, §9, §10

LOVO Colon carcinoma = assay: Growth of human colon tumor xenograft, ip infusion (Table 9); type: in vivo, human xenograft in athymic CD-1 mice; conditions: 7 days
Description: as §4, §5, §6, §7, §8, §9, §10

LX-1-Lung carcinoma = assay: Growth of human lung tumor xenograft, ip infusion (Table 9); type: in vivo, human xenograft in athymic CD-1 mice; conditions: 7 days
Description: as §4, §5, §6, §7, §8, §9, §10

LoVo colon tumors = assay: Subcutaneous infusion in tumor-bearing mice; type: in vivo, human xenograft in athymic NCR-NU mice; conditions: sc infusion approximately 42 mg/kg/day (1 mg/mouse), seven days
[3] = test system: two mammary, one lung, and one colon tumor; assay: Advanced-stage human tumor xenografts, ip infusion; type: in vivo, human xenograft in athymic CD-1 mice; conditions: seven day ip infusion
Description: as §4

L1210 leukemia = assay: Life span of L1210-inoculated BDF1 mice (Table 7)

Nc1ncnc2c1nc(Cl)n2[C@@H]1O[C@@H]2COP(=O)(O)O[C@H]2[C@H]1O [8-Cl-cAMP-Na^+]
mortality ([1]; 22 mg/kg ip bolus): 0%
mortality ([1]; 37 mg/kg ip bolus): 0%
mortality ([1]; 62 mg/kg ip bolus): 0%
mortality ([1]; 104 mg/kg ip bolus): 0%
LD50 ([1]; Single ip dose): 195 mg/kg
Toxic deaths, No. killed/No. treated (BDF1 mice; 173 mg/kg ip bolus): 2/5
Toxic deaths, No. killed/No. treated (BDF1 mice; 173 mg/kg ip bolus, listed as 8Cl-cAMP-Na^+): killed 2 of 5 mice
Toxic deaths, No. killed/No. treated (BDF1 mice; 288 mg/kg ip bolus): 5/5
Toxic deaths, No. killed/No. treated (BDF1 mice; 288 mg/kg ip bolus, listed as 8Cl-cAMP-Na^+): lethally toxic for all treated mice
Toxic deaths, No. killed/No. treated (BDF1 mice; 480 mg/kg ip bolus): 5/5
Toxic deaths, No. killed/No. treated (BDF1 mice; 480 mg/kg ip bolus, listed as 8Cl-cAMP-Na^+): lethally toxic for all treated mice
LD10 (BDF1 mice; Single ip dose): 122 mg/kg
Final Mean Tumor Wt ([2]; 37 mg/kg/day, initial 367 mg): 516 mg
% Δ T/T or % Δ T/ΔC ([2]; 37 mg/kg/day): +41%
Final Mean Tumor Wt ([2]; 62 mg/kg/day, initial 375 mg): 471 mg
% Δ T/T or % Δ T/ΔC ([2]; 62 mg/kg/day): +26%
Final Mean Tumor Wt ([2]; 104 mg/kg/day, initial 367 mg): 433 mg
% Δ T/T or % Δ T/ΔC ([2]; 104 mg/kg/day): +18%
Final Mean Tumor Wt (MX-1 mammary carcinoma; 62 mg/kg/day, initial 337 mg): 288 mg
% Δ T/T or % Δ T/ΔC (MX-1 mammary carcinoma; 62 mg/kg/day): -15%
Final Mean Tumor Wt (MX-1 mammary carcinoma; 104 mg/kg/day, initial 346 mg): 323 mg
% Δ T/T or % Δ T/ΔC (MX-1 mammary carcinoma; 104 mg/kg/day): -07%
Final Mean Tumor Wt (MX-1 mammary carcinoma; 173 mg/kg/day, initial 375 mg): 336 mg
% Δ T/T or % Δ T/ΔC (MX-1 mammary carcinoma; 173 mg/kg/day): -10%
Final Mean Tumor Wt (LOVO Colon carcinoma; 37 mg/kg/day, initial 288 mg): 284 mg
% Δ T/T or % Δ T/ΔC (LOVO Colon carcinoma; 37 mg/kg/day, negative = ΔT/T): -01%
Final Mean Tumor Wt (LOVO Colon carcinoma; 62 mg/kg/day, initial 293 mg): 290 mg
% Δ T/T or % Δ T/ΔC (LOVO Colon carcinoma; 62 mg/kg/day, negative = ΔT/T): -01%
% Δ T/T or % Δ T/ΔC (LOVO Colon carcinoma; 104 mg/kg/day): -35%
Final Mean Tumor Wt (LOVO Colon carcinoma; 104 mg/kg/day, initial 288 mg): 317 mg
Final Mean Tumor Wt (LX-1-Lung carcinoma; 37 mg/kg/day, initial 330 mg): 341 mg
% Δ T/T or % Δ T/ΔC (LX-1-Lung carcinoma; 37 mg/kg/day, positive = ΔT/ΔC): +06%
Final Mean Tumor Wt (LX-1-Lung carcinoma; 62 mg/kg/day, initial 327 mg): 277 mg
% Δ T/T or % Δ T/ΔC (LX-1-Lung carcinoma; 62 mg/kg/day, negative = ΔT/T): -15%
Final Mean Tumor Wt (LX-1-Lung carcinoma; 104 mg/kg/day, initial 324 mg): 270 mg
% Δ T/T or % Δ T/ΔC (LX-1-Lung carcinoma; 104 mg/kg/day, negative = ΔT/T): -17%
toxicity (LoVo colon tumors): appeared to be toxic
tumor growth during treatment [3]: caused tumor stasis during treatment
Postinoculation lifespan (T/C) (L1210 leukemia; 0.6 mg/kg/day ip, 24-hr infusion, day 1-5): 100
Postinoculation lifespan (T/C) (L1210 leukemia; 1.7 mg/kg/day ip, 24-hr infusion, day 1-5): 100
Postinoculation lifespan (T/C) (L1210 leukemia; 4.8 mg/kg/day ip, 24-hr infusion, day 1-5): 100
Postinoculation lifespan (T/C) (L1210 leukemia; 13 mg/kg/day ip, 24-hr infusion, day 1-5): 113
Postinoculation lifespan (T/C) (L1210 leukemia; 22 mg/kg/day ip, 24-hr infusion, day 1-5): 126
Postinoculation lifespan (T/C) (L1210 leukemia; 22 mg/kg/day ip, qd, day 1-7): 103
Postinoculation lifespan (T/C) (L1210 leukemia; 37 mg/kg/day ip, 24-hr infusion, day 1-5): 126
Postinoculation lifespan (T/C) (L1210 leukemia; 37 mg/kg/day ip, qd, day 1-7): 93
Postinoculation lifespan (T/C) (L1210 leukemia; 62 mg/kg/day ip, 24-hr infusion, day 1-5): 137
Postinoculation lifespan (T/C) (L1210 leukemia; 62 mg/kg/day ip, qd, day 1-7): 103
Postinoculation lifespan (T/C) (L1210 leukemia; 104 mg/kg/day ip, 24-hr infusion, day 1-5): 137
Postinoculation lifespan (T/C) (L1210 leukemia; 104 mg/kg/day ip, qd, day 1-7): 98
Postinoculation lifespan (T/C) (L1210 leukemia; 173 mg/kg/day ip, 24-hr infusion, day 1-5): 131
toxicity (L1210 leukemia; 288 mg/kg/day ip infusion): toxic
toxicity (L1210 leukemia; 288 mg/kg/day ip infusion, listed as 8Cl-cAMP-Na^+): killed 2 to 5 mice
Postinoculation lifespan (T/C) (L1210 leukemia; 288 mg/kg/day ip, 24-hr infusion, day 1-5, toxic): 128
toxicity (L1210 leukemia; 480 mg/kg/day ip infusion): toxic
toxicity (L1210 leukemia; 480 mg/kg/day ip infusion, listed as 8Cl-cAMP-Na^+): lethally toxic for all treated mice
Postinoculation lifespan (T/C) (L1210 leukemia; 480 mg/kg/day ip, 24-hr infusion, day 1-5, toxic): 93
toxicity (L1210 leukemia; 800 mg/kg/day ip infusion): toxic
toxicity (L1210 leukemia; 800 mg/kg/day ip infusion, listed as 8Cl-cAMP-Na^+): lethally toxic for all treated mice
Postinoculation lifespan (T/C) (L1210 leukemia; 800 mg/kg/day ip, 24-hr infusion, day 1-5, toxic): 62
